# Laboratory results from a melting point compilation (Tetko et al.; mined from patent text by program, amines drawn as free bases though some values may be those of a salt).
row,Structure (SMILES),melting point
1,COC(=O)/C(=C/C=C/c1cn(C(C)=O)c2ccccc12)OC,107 to 108 °C
2,c1ncn2nncc2n1,249 to 251 °C
3,Clc1ccc2c(c1)N(c1ncnc3cnccc13)CC2,194 to 196 °C
4,CC(O)COc1cccc2oc(C(N)=O)cc(=O)c12 (stereo unspecified),229 to 231 °C
5,COC(=O)CCCSC(=S)NCc1ccc(Cl)cc1,60 to 62 °C
6,NC(=O)N1c2ccccc2C=C(Br)c2ccccc21,168 to 170 °C
7,O=C(c1ccccc1)P1(=O)Oc2ccccc2-c2ccccc21 (stereo unspecified),134 to 135 °C
8,NS(=O)(=O)Cc1csc(-c2ccc(Cl)c(Cl)c2)n1,165 to 167 °C
9,COc1ccc(C(=O)c2ccc(OCCc3nc(-c4ccccc4)oc3C)cc2)c(OC(C)(C)C(=O)O)c1,81 to 82 °C
10,O=C(O)C1C2C=CC(C2)C1NS(=O)(=O)c1ccc(OCc2ccccc2)cc1 (stereo unspecified),201 to 203 °C
11,CCS(=O)(=O)c1ccc(C(CC2CCCC2)C(=O)Nc2nccs2)cc1 (stereo unspecified),178 to 179 °C
12,COC(=O)c1sc(C)c(C)c1OC,37 to 39 °C
13,c1ccc2c(c1)[nH]c1c2nc2ncccn21,96 to 98 °C
14,CN(C)CC#Cc1cnc2c(c1)N(Cc1cc(Cl)ccc1Cl)CCN2,168 °C
15,COC(=O)C(C)(C)Cc1[nH]c2cc(OC)ccc2c1SC(C)(C)C,133 °C
16,Cc1cc(Cl)cc(C(=O)NC(C)C2CC2)c1NC(=O)c1cc(Br)nn1-c1ccccc1Cl (stereo unspecified),180 to 181 °C
17,O=c1cc(-c2ccccc2)c2c(O)cc(O)cc2o1,179 to 182 °C
18,CCCCCCCCC(=O)Nc1cc(C)c(O)c(C)c1,100 to 101 °C
19,CC(=O)NCc1ccc2oc([N+](=O)[O-])c(-c3ccccc3)c2c1,201 to 203 °C
20,O=C(CCSC(=O)c1ccccc1)N[C@@H](Cc1ccccc1)C(=O)O,123 to 124 °C
21,COC(=O)C=Cc1ccc(OC)cc1,85 to 86 °C

row,Structure (SMILES),melting point
1,COc1ccc(C2CCC(=O)CC2NC(=O)c2ccc(OCC3CC3)c(OCC3CC3)c2)cc1OC (stereo unspecified),150 to 152 °C
2,CCOC(=O)c1cc(CC)sc1Nc1ccccc1[N+](=O)[O-],66 to 68 °C
3,CCCc1noc(-c2ncn3c2[C@@H]2CCCN2C(=O)c2c(Cl)cccc2-3)n1,176 to 178 °C
4,COc1ccc(-c2[nH]nc3c2C(=O)c2c(NC(=O)CN4CCC(CN)CC4)cccc2-3)cc1,> 300 °C
5,CC(C)(C)[Si](C)(C)Oc1ccc2c(ccc3c4ccc(O[Si](C)(C)C(C)(C)C)cc4oc(=O)c23)c1,154 to 156 °C
6,Cc1ncc(C#N)c(Cl)c1I,120 to 122 °C
7,O=C1CCC(N2Cc3c(CNC(=O)NC4CCCCC4)cccc3C2=O)C(=O)N1 (stereo unspecified),309 to 311 °C
8,Cc1c(C)c2c(c(C)c1NC(=O)OC(C)(C)C)C(c1ccc(C(C)C)cc1)C(C)(C)O2 (stereo unspecified),119 to 120 °C
9,CCOP(=O)(OCC)C(O)c1ccccc1 (stereo unspecified),83 to 83.5 °C
10,CN(Cc1ccc(Cl)cc1)C(=O)CC12CC3CC(CC(C3)C1)C2,75 to 76 °C
11,Cc1cc(N=C2NCCN2)cc(NS(C)(=O)=O)c1,54 to 77 °C
12,C#CCn1cc(Cc2ccc(C(=O)OC)cc2OC)c2cc(NC(=O)CC3CCCC3)ccc21,160 to 161 °C
13,CC(C)(C)OC(=O)[C@@H]1CCCN1CC(=O)[C@H](Cc1ccccc1)NC(=O)OCc1ccccc1,98 to 99 °C
14,COCCOC(=O)C1=C(C)NC(C)=C(C(=O)OCCN2CCN(C(c3ccccc3)c3ccccc3)CC2)C1c1cccc([N+](=O)[O-])c1 (stereo unspecified),62 to 66 °C
15,CN(C1CCN(CC(C)(C)O)CC1)S(=O)(=O)c1ccc(Nc2nccc(Nc3ccc(F)c(F)c3)n2)cc1,234 to 235 °C
16,CC1=CN2CCS(=O)(=O)N=C2C(c2ccc(Oc3ccccc3)cc2)=N1,92 to 92.5 °C
17,CCCCS(=O)(=O)NC1Cc2ccccc2C1,60 to 62 °C
18,O=c1c(CCl)cc2cc([N+](=O)[O-])ccc2n1-c1ccccc1,152 to 154 °C
19,CCN(CC)CCCCC(=O)c1cc(Cl)c(N)cc1OCc1cc(OC)cc(OC)c1,105 to 107 °C
20,c1ccc(CN2CCC(=C3c4ccsc4CCn4ccnc43)CC2)cc1,178 °C
21,CCCn1nc(-c2ccc(O)c(F)c2)c2cccc(-c3ccccc3)c21,177 to 178 °C

row,Structure (SMILES),melting point
1,CNCCCn1cc2c(C3C(=O)Nc4ccc(Br)cc43)ncnc2n1 (stereo unspecified),240 to 243 °C
2,CC(C)[C@@H](CO)NS(=O)(=O)c1ccc(Br)cc1,89 to 94 °C
3,CCSc1nc(C)n(Cc2ccc(-c3ccccc3C(=O)O)cc2)c1CO,250 °C
4,CN1CCN(c2cccc(-n3cnc4cc(C#N)ccc43)c2)CC1,158 to 160 °C
5,Cc1ccc(Nc2nnc(-c3cccc(OCc4ccccc4)c3)s2)cc1Cl,211 to 212 °C
6,COc1cccc2c(=O)cc(C=Cc3ccc(C(=O)O)cc3)oc12,298 to 300 °C
7,CCCCSC(=O)NC(=O)C(c1ccccc1)c1ccccc1,99 °C
8,Cc1cc([N+](=O)[O-])c(C)cc1Cc1cccc(C(F)(F)F)c1,75 to 77 °C
9,CN(C)CCCOc1ccc(N(C(=O)c2ccc(F)cc2)c2ccccc2)cc1,82.5 to 83.5 °C
10,OCC(O)Cc1nccn1CCCCc1ccc(OCc2coc(/C=C/c3ccc(C(F)(F)F)cc3)n2)cc1 (stereo unspecified),142 to 143 °C
11,OCCN(CCO)CCCNc1nc2cc(Cl)c(Cl)cc2nc1-c1ccccn1,88 to 90 °C
12,CCCc1cc(-c2noc3cc(O)ccc23)ccc1O,227 to 229 °C
13,CC(=O)NC(=O)c1ccc(OCCn2ccnc2)cc1,164 to 165 °C
14,CN1CS(=O)c2cccc(Br)c21 (stereo unspecified),138 to 140 °C
15,Fc1ccc(OCCN2CCC(CNc3nc4ccccc4s3)CC2)cc1,117 °C
16,CC1CCC2(OC1)OC1CC3C4CCC5CC(=O)CCC5(C)C4CCC3(C)C1C2C (stereo unspecified),209 to 211 °C
17,O=C(O)c1cccc(NC(=O)C(COC2CCCCO2)NS(=O)(=O)c2ccc(Cl)cc2)c1 (stereo unspecified),84 to 124 °C
18,CCN(CC)C(=O)CCc1nc(-c2ccccc2)nc2ccccc12,103 °C
19,CCOC(=O)C(C#N)C1NC(=O)c2sccc2-n2cccc21 (stereo unspecified),195 °C
20,CCN1C(=O)C(=O)N(c2cc(Cl)ccc2C)C1=S,173 to 174 °C
21,Cc1ccc(-c2c(CNC(=O)OC(C)(C)C)n(CC(C)C)c(=O)c3ccc(O)cc23)cc1,233 to 234 °C

# The next lines start with the values.
row,melting point,Structure (SMILES)
1,102 to 103 °C,Cn1nc(N)nc1NCCCOc1cccc(CNC2CCCCC2)c1
2,79 to 80 °C,CCS(=O)(=O)N(Cc1cccnc1)c1ccc(Oc2ccccc2)cc1
3,> 260 °C,O=C1c2ccccc2C(=O)c2sc(-c3ccc(CO)o3)nc21
4,108 to 110 °C,COC(=O)c1c(CC(C)C)nc2ccc(Br)cc2c1-c1ccccc1
5,181 to 183 °C,C[C@@H](O)c1nccc(N2CCN(c3nc4ccncc4o3)CC2)n1
6,136 to 138 °C,O=[N+]([O-])c1cccc2c1nnn2SC(Cl)(Cl)Cl
7,156 to 157 °C,O=C1COc2cc(Sc3ccc(O)cc3)ccc2N1
8,225 °C,CC1(C)C=Cc2c(cc(O)c3c(=O)c4cc5ccccc5cc4[nH]c23)O1
9,262 to 263 °C,CC(C)c1ccc(S(=O)(=O)NC(=O)Cc2ccc3c(c2)OCO3)cc1
10,166 to 167 °C,CCOC(=O)c1c(Cn2cncn2)nc2sc3ccncc3c2c1-c1ccc(OC)c(OC)c1
11,182 to 185 °C,N#Cc1ccc(OC2CCN(c3ccncc3)C2)cc1 (stereo unspecified)
12,115 to 117 °C,O=C(Nc1ccc(Oc2ccnc(N3CCC4(CC3)OCCO4)n2)c2ccccc12)c1cc(F)cc(N2CCOCC2)c1
13,80 to 82 °C,O=c1oc(-c2cc(C(F)(F)F)cc(C(F)(F)F)c2)cc(O)c1SCc1ccccc1
14,183 to 184 °C,CC(=O)Oc1ccc(-c2cnc[nH]c2=O)cc1OC(C)=O
15,209 to 211 °C,CCCCn1c(=O)n(CCC)c(=O)c2c(N)n[nH]c21
16,111 to 113 °C,COc1nc(OC)c(C(C)C)c(C(=O)c2cc(C)cc(C=O)c2)n1
17,95 °C,CC(=O)OCn1cc(Cl)c(-c2cc(Cl)cc(Cl)c2)n1
18,157 to 159 °C,COC(=O)C(Oc1cc(OCc2ccc3ncoc3c2)ccc1C#N)c1ccccc1C (racemic)
19,115 to 116 °C,C#CCNC(=NCCSCc1ncccc1Cl)NC#N

row,melting point,Structure (SMILES)
1,224 to 226 °C,O=C(Nc1cccc(-c2ccnc3c(C(=O)c4cccs4)cnn23)c1)c1ccc(-n2cccc2)cc1
2,235 to 236 °C,COc1cc(NC(C)=O)c(Cl)cc1-c1nn(-c2ccc(C(F)(F)F)cc2)c(=O)o1
3,179 to 185 °C,Brc1ccc2c(c1)Cc1cc(I)ccc1-2
4,121 to 127 °C,COc1cc(I)c(C(C)=NOCc2ccc([N+](=O)[O-])cc2)cc1O
5,123 to 124 °C,O=C(NC(=S)Nc1ccccc1-c1ccc(F)cc1)c1ccccc1
6,149 to 151 °C,CC(=O)OCC(=O)C1(OC(C)=S)CCC2C3CC(C)C4=CC(=O)C=CC4(C)C3C(O)CC21C (stereo unspecified)
7,215 to 217 °C,O=C(O)c1cnc2n(c1=O)CCc1ccccc1-2
8,226 to 227 °C,CC(CCCO)C1CCC2C3C(O)CC4CC(O)CCC4(C)C3CC(O)C12C (stereo unspecified)
9,33 to 33.5 °C,CC(=O)/C=C(\C)c1ccc(C2CCCC2)cc1
10,> 400 °C,O=C(O)c1cc(I)cc2c(=O)c3ccccc3[nH]c12
11,189 °C,O=C(NCCc1ccccc1)Nc1ccc([N+](=O)[O-])cc1O
12,92 to 93 °C,COCC(=O)Nc1cccc(C2(c3ccncc3)N=C(N)N(C)C2=O)c1 (stereo unspecified)
13,167 to 168 °C,Cc1nc(C)c(Cl)c(NCc2ccc(O)c(OC(F)F)c2)n1
14,145 to 147 °C,COCc1nc2c([N+](=O)[O-])cc(Br)cc2n1C
15,202 to 204 °C,CC1(C)CCSc2cc(C(=O)O)ccc21
16,266 to 271 °C,O=C1NC(=O)c2c1c(-c1ccc(CO)cc1)cc1[nH]c3ccc(O)cc3c21
17,78 to 80 °C,CC(C)(C)C1=CC(C(F)(F)F)=CCC1(O)C(C)(C)C (stereo unspecified)
18,158 to 162 °C,CC(C)CC(Sc1c(Cl)cccc1Cl)c1c(O)cc(-c2ccccc2)oc1=O (stereo unspecified)
19,116 to 117 °C,COC(=O)c1nc(C)c(-c2ccnc3ccccc23)s1
